Results on 6 compounds are retold here after patent publication US11932628B2, “Selective small molecule peptidomimetic melanocortin ligands” (REGENTS OF THE UNIVERSITY OF MINNESOTA, priority 2021, dated 2024).

In one assay the target is mMC3R (Mus musculus, UniProt P33033). In words: cAMP based functional bioassay (CRE/β-galactosidase reporter), agonist activity at mMC3R.
In assay [1] the target is T1, mMC4R (Mus musculus, UniProt P56450). As to the kind of experiment: Schild analysis of antagonist activity at mMC4R. As to conditions: for mMC4R Antagonist pA2: Schild analysis.
T1 sequence (P56450 whole entry): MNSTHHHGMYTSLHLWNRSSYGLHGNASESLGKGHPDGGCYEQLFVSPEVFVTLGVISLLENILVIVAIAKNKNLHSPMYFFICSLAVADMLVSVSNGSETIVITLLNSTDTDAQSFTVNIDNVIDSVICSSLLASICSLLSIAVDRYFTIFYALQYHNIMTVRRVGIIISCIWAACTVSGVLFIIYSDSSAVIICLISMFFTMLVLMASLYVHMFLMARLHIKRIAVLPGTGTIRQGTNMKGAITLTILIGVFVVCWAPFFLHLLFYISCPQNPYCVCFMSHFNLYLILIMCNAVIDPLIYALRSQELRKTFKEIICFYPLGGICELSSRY
Procedure: The antagonist activity may also be reported as a Ki value, which is the inverse Log of pA2. […] Compounds were dissolved in DMSO at a stock concentration of 10^−2 M and stored at −20° C. until assayed. HEK-293 cells stably expressing the selected melanocortin receptors were transiently transfected with 4 μg of CRE/β-galactosidase reporter gene. Briefly, 5000-15000 post transfection cells were plated into collagen treated 96-well plates (Nunc) and incubated overnight. […] The assay media was aspirated, and 50 μL of lysis buffer (250 mM Tris-HCl pH=8.0 and 0.1% Triton X-100) was added. The plates were stored at −80° C. overnight. The plates containing the cell lysates were thawed the following day. Aliquots of 10 μL were taken from each well and transferred to another 96-well plate for relative protein determination. To the cell lysate plates, 40 μL of phosphate-buffered saline with 0.5% BSA was added to each well. Subsequently, 150 μL of substrate buffer (60 mM sodium phosphate, 1 mM MgCl2, 10 mM KCl, 5 mM β-mercaptoethanol, 2 mg/mL ONPG) was added to each well and the plates were incubated at 37° C. The sample absorbance, OD405, was measured using a 96-well plate reader (Molecular Devices). The relative protein was determined by adding 200 μL of 1:5 dilution BioRad G250 protein dye:water to the 10 μL of cell lysate sample taken previously, and the OD595 was measured on a 96-well plate reader (Molecular Devices). Data points were normalized to forskolin and the relative protein content were used as positive controls. The EC50 values represent the mean of three or more independent experiments. The EC50 estimates, and their associated standard errors of the mean, were determined by fitting the data to a nonlinear least-squares analysis using the PRISM program (v4.0, GraphPad Inc.).
The reported values are on a log scale. In order to put them into perspective, their approximate binding disassociation constants, Ki values, can be calculated through the following relationship pA2=−Log10 (Ki).
The target in a further assay is mMC5R (Mus musculus, UniProt P41149). As to the kind of experiment: cAMP based functional bioassay (CRE/β-galactosidase reporter), agonist activity at mMC5R.
mMC5R, sequence (P41149 whole entry): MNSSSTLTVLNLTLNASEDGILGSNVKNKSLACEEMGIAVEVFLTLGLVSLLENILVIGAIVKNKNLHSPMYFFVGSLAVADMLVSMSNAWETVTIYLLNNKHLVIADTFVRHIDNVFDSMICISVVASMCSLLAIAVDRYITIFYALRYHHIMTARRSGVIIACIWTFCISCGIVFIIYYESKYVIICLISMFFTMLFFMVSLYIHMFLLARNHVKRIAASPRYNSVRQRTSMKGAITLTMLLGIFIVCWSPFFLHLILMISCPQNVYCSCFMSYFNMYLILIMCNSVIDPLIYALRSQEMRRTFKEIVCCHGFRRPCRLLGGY
In another assay the target is mMC1R (Mus musculus, UniProt Q01727). In words: cAMP based functional bioassay (CRE/β-galactosidase reporter), agonist activity at mMC1R.
mMC1R, sequence (Q01727 whole entry): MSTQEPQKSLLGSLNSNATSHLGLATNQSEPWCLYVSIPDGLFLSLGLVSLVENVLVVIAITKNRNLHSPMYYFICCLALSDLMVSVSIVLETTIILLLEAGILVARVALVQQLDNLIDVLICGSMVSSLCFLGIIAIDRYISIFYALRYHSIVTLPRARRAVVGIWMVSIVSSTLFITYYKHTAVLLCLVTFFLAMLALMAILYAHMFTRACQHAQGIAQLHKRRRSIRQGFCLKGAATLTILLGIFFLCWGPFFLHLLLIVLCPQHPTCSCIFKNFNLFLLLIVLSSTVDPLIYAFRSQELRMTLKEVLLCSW
Assay [2] has as its target T1, mMC4R. In words: cAMP based functional bioassay (CRE/β-galactosidase reporter), agonist activity at mMC4R. Further details: Emax: dose or concentration left out as unconfirmed. Particulars: for Emax: read-out: maximal activation at the melanocortin-4 receptor; for mMC4R Activity @ 10 μM (class) / mMC4R Activity @ 10 μM (relative activity, percent): reported where receptor not activated to full activity.
Procedure: (§1) The compounds were evaluated using a whole cell assay.
(§2) Compounds were dissolved in DMSO at a stock concentration of 10^−2 M and stored at −20° C. until assayed. HEK-293 cells stably expressing the selected melanocortin receptors were transiently transfected with 4 μg of CRE/β-galactosidase reporter gene. Briefly, 5000-15000 post transfection cells were plated into collagen treated 96-well plates (Nunc) and incubated overnight. […] The assay media was aspirated, and 50 μL of lysis buffer (250 mM Tris-HCl pH=8.0 and 0.1% Triton X-100) was added. The plates were stored at −80° C. overnight. The plates containing the cell lysates were thawed the following day. Aliquots of 10 μL were taken from each well and transferred to another 96-well plate for relative protein determination. To the cell lysate plates, 40 μL of phosphate-buffered saline with 0.5% BSA was added to each well. Subsequently, 150 μL of substrate buffer (60 mM sodium phosphate, 1 mM MgCl2, 10 mM KCl, 5 mM β-mercaptoethanol, 2 mg/mL ONPG) was added to each well and the plates were incubated at 37° C. The sample absorbance, OD405, was measured using a 96-well plate reader (Molecular Devices). The relative protein was determined by adding 200 μL of 1:5 dilution BioRad G250 protein dye:water to the 10 μL of cell lysate sample taken previously, and the OD595 was measured on a 96-well plate reader (Molecular Devices). Data points were normalized to forskolin and the relative protein content were used as positive controls. The EC50 values represent the mean of three or more independent experiments. The EC50 estimates, and their associated standard errors of the mean, were determined by fitting the data to a nonlinear least-squares analysis using the PRISM program (v4.0, GraphPad Inc.).
(§3) The results are tabulated in the form of EC50 values. In the case where the particular receptor was not activated to full activity at 100,000 nM, then the relative activity was reported.

Where [3] appears, read: reported where receptor not activated to full activity.

mMC3R, sequence (P33033 whole entry): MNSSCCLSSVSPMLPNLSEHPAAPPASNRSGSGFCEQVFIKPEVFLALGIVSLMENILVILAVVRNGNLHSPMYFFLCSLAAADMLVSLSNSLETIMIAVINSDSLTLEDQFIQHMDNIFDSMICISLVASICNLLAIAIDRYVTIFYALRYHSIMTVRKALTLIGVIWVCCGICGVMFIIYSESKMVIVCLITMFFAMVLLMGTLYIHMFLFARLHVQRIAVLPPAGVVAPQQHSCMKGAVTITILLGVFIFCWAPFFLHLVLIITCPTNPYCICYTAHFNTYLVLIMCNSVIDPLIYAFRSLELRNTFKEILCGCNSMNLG
Procedure for mMC1R: as §1, §2, §3
Procedure for mMC3R: as §1, §2, §3
Procedure for mMC5R: as §1, §2, §3

For the compound `CC(C)C[C@@H]1CNC(=N)N1C[C@@H]1CCCN1C[C@@H](Cc1ccccc1)N1C[C@@H]([C@@H](C)O)N(CC2CCC(C(C)(C)C)CC2)C1=N` (stereo partly drawn) [TPI 2509-14, (R)-1-((S)-3-((4-(tert-butyl)cyclohexyl)methyl)-2-imino-1-((R)-1-((S)-2-(((R)-2-imino-5-isobutylimidazolidin-1-yl)methyl)pyrrolidin-1-yl)-3-phenylpropan-2-yl)imidazolidin-4-yl)ethanol], at mMC3R, a half-maximal effect (EC50) was put at 310 ± 60 nM and the “EC50 values at the melanocortin-3 receptor (in words)” value was “nanomolar”. Moreover, at mMC4R [1], the Kb came to 100 nM, the Ki was found to be 100 nM and the “mMC4R Antagonist pA2” value is on record as 7.0±0.7. The same compound yielded a half-maximal effective concentration (EC50) at mMC5R of 530 ± 50 nM. Besides, at mMC1R (setting [3]), the “mMC1R Activity @ 10 μM (class)” value is listed as “B (B: >51%)” and the “mMC1R Activity @ 10 μM (relative activity, percent)” value is recorded as 58%. Besides, on mMC4R [2], the Emax was > 20% and the “mMC4R Activity @ 10 μM (class)” value is “A (A: <50%)”.
As to `CC(C)[C@@H]1CNC(=N)N1C[C@@H]1CCCN1C[C@@H](CC1CCCCC1)N1C[C@@H]([C@@H](C)O)N(CC23CC4CC(CC(C4)C2)C3)C1=N` [TPI 2509-22, (R)-1-((S)-3-(adamantan-1-ylmethyl)-1-((R)-1-cyclohexyl-3-((S)-2-(((R)-2-imino-5-isopropylimidazolidin-1-yl)methyl)pyrrolidin-1-yl)propan-2-yl)-2-iminoimidazolidin-4-yl)ethanol], the EC50 at mMC3R came to 370 ± 90 nM; at mMC5R, 600 ± 210 nM; at mMC1R it was 200 ± 80 nM. Besides, the Kb at mMC4R [1] turned out to be 1580 nM. In addition, the “mMC4R Activity @ 10 μM (class)” value at mMC4R [2] was “A (A: <50%)”. Besides, the “mMC4R Activity @ 10 μM (relative activity, percent)” value at mMC4R [2] stood at 49%.
Consider `CC(C)[C@@H]1CNC(=N)N1C[C@@H]1CCCN1C[C@@H](CC1CCCCC1)N1C[C@@H]([C@@H](C)O)N(CC2CCC(C(C)(C)C)CC2)C1=N` (stereo partly drawn) [TPI 2509-23, (R)-1-((S)-3-((4-(tert-butyl)cyclohexyl)methyl)-1-((R)-1-cyclohexyl-3-((S)-2-(((R)-2-imino-5-isopropylimidazolidin-1-yl)methyl)pyrrolidin-1-yl)propan-2-yl)-2-iminoimidazolidin-4-yl)ethanol], for which the EC50 on mMC3R turned out to be 220 ± 30 nM; on mMC5R it was 150 ± 20 nM; at mMC1R, 300 ± 120 nM. This compound also returned an antagonist dissociation constant (Kb) on mMC4R [1] of 1260 nM. In addition, at mMC4R [2], the “mMC4R Activity @ 10 μM (class)” value was “A (A: <50%)”. The “mMC4R Activity @ 10 μM (relative activity, percent)” value at mMC4R [2] is 41%.
`CCC[C@@H]1CN([C@H](CC2CCCCC2)CN2CCC[C@H]2CN2C(=N)NC[C@H]2C(C)C)C(=N)N1CC1CCC(C(C)(C)C)CC1` (stereo partly drawn) [TPI 2509-26, (R)-3-((4-(tert-butyl)cyclohexyl)methyl)-1-((R)-1-cyclohexyl-3-((S)-2-(((R)-2-imino-5-isopropylimidazolidin-1-yl)methyl)pyrrolidin-1-yl)propan-2-yl)-4-propylimidazolidin-2-imine]: the EC50 on mMC3R is 350 ± 20 nM; on mMC5R, 540 ± 50 nM. Besides, the antagonist dissociation constant (Kb) on mMC4R [1] came out at 1580 nM. Also, the “mMC1R Activity @ 10 μM (class)” value on mMC1R (setting [3]) is reported as “B (B: >51%)”. Also, the “mMC4R Activity @ 10 μM (class)” value at mMC4R [2] is given as “A (A: <50%)”. Moreover, the “mMC4R Activity @ 10 μM (relative activity, percent)” value at mMC4R [2] is 50%.
For the compound `CC(C)[C@@H]1CNC(=N)N1C[C@@H]1CCCN1C[C@@H](Cc1ccccc1)N1C[C@@H]([C@@H](C)O)N(CC23CC4CC(CC(C4)C2)C3)C1=N` [TPI 2509-31, (R)-1-((S)-3-(adamantan-1-ylmethyl)-2-imino-1-((R)-1-((S)-2-(((R)-2-imino-5-isopropylimidazolidin-1-yl)methyl)pyrrolidin-1-yl)-3-phenylpropan-2-yl)imidazolidin-4-yl)ethanol], the EC50 at mMC3R was 360 ± 10 nM; at mMC5R, 180 ± 90 nM; at mMC1R, 440 ± 140 nM. Further, the Kb at mMC4R [1] was determined as 1580 nM. Besides, the “mMC4R Activity @ 10 μM (relative activity, percent)” value on mMC4R [2] worked out at 50%.
Turning to `CC(C)[C@@H]1CNC(=N)N1C[C@@H]1CCCN1C[C@@H](Cc1ccccc1)N1C[C@@H]([C@@H](C)O)N(CC2CCC(C(C)(C)C)CC2)C1=N` (stereo partly drawn) [TPI 2509-32, (R)-1-((S)-3-((4-(tert-butyl)cyclohexyl)methyl)-2-imino-1-((R)-1-((S)-2-(((R)-2-imino-5-isopropylimidazolidin-1-yl)methyl)pyrrolidin-1-yl)-3-phenylpropan-2-yl)imidazolidin-4-yl)ethanol], on mMC3R, the midpoint of the response, the EC50, lay at 420 ± 120 nM and the “EC50 values at the melanocortin-3 receptor (in words)” value is on record as “nanomolar”. For the same compound, on mMC4R [1], the Kb worked out at 316 nM, the Ki came to 320 nM and the “mMC4R Antagonist pA2” value is 6.5±0.5. Also, on mMC5R, the EC50 came out at 490 ± 155 nM. Also, the EC50 at mMC1R stood at 600 ± 340 nM. Moreover, at mMC4R [2], the Emax was > 20% and the “mMC4R Activity @ 10 μM (class)” value is “A (A: <50%)”.

The EC50 is the concentration needed to bring the measured effect to its halfway point. What is called Kb is the equilibrium dissociation constant of an antagonist, usually derived from a functional assay. Usually Ki stands for a dissociation constant, usually derived from enzyme kinetics or from competition with a known ligand.
